Source: the NIST ThermoML archive (doi:10.1021/acs.jced.5b00451)
± gives the expanded uncertainty stated by the source.

Experiment: mn = molality of the nth substance listed, in mol/kg
Details: 101.33 kPa, Liquid, Vibrating tube method

CCCCCC[N+](C)(C)C.[Br-] [hexyltrimethylammonium bromide] + O
mass density [kg/m3]
Details	293.15 K	298.15 K	303.15 K
m1 = 0.04932	999.719 ± 0.2	998.528 ± 0.2	997.065 ± 0.2
m1 = 0.07746	1000.55 ± 0.2	999.34 ± 0.2	997.873 ± 0.2
m1 = 0.08812	1000.88 ± 0.2	999.654 ± 0.2	998.174 ± 0.2
m1 = 0.1186	1001.76 ± 0.2	1000.52 ± 0.2	999.049 ± 0.2
m1 = 0.1774	1003.49 ± 0.2	1002.19 ± 0.2	1000.78 ± 0.2
m1 = 0.1855	1003.72 ± 0.2	1002.41 ± 0.2	1000.97 ± 0.2
m1 = 0.2757	1006.26 ± 0.21	1004.93 ± 0.2	1003.53 ± 0.2
m1 = 0.3712	1008.99 ± 0.21	1007.66 ± 0.21	1006.15 ± 0.21
m1 = 0.4703	1011.8 ± 0.21	1010.34 ± 0.21	1008.8 ± 0.21
m1 = 0.5274	1013.14 ± 0.21	1011.76 ± 0.21	1010.3 ± 0.21
m1 = 0.5803	1014.75 ± 0.21	1013.13 ± 0.21	1011.67 ± 0.21
m1 = 0.636	1016.19 ± 0.21	1014.59 ± 0.21	1013.12 ± 0.21

CCCCCCCCCCCCCCCC[N+](C)(C)C.[Br-] [N,N,N-trimethyl-1-hexadecanaminium bromide] + O
mass density [kg/m3]
Details	293.15 K	298.15 K	303.15 K
m1 = 0.00082	998.23 ± 0.2	997.052 ± 0.21	995.673 ± 0.2
m1 = 0.00093	998.234 ± 0.2	997.055 ± 0.2	995.669 ± 0.2
m1 = 0.00104	998.238 ± 0.2	997.058 ± 0.21	995.669 ± 0.2
m1 = 0.00205	998.239 ± 0.2	997.06 ± 0.2	995.666 ± 0.2
m1 = 0.00309	998.245 ± 0.2	997.062 ± 0.2	995.67 ± 0.2
m1 = 0.00411	998.243 ± 0.2	997.065 ± 0.2	995.678 ± 0.2
m1 = 0.00625	998.254 ± 0.2	997.073 ± 0.2	995.681 ± 0.2
m1 = 0.00726	998.258 ± 0.2	997.076 ± 0.2	995.678 ± 0.2
m1 = 0.00801	998.255 ± 0.2	997.076 ± 0.2	995.687 ± 0.2
m1 = 0.00931	998.264 ± 0.2	997.078 ± 0.2	995.679 ± 0.2
m1 = 0.01038	998.274 ± 0.2	997.082 ± 0.2	995.679 ± 0.2
m1 = 0.01139	998.276 ± 0.2	997.089 ± 0.2	995.693 ± 0.2
m1 = 0.01252	998.279 ± 0.2	997.093 ± 0.2	995.676 ± 0.2
m1 = 0.01454	998.293 ± 0.2	997.098 ± 0.2	995.699 ± 0.2
m1 = 0.01561	998.296 ± 0.2	997.105 ± 0.2	995.676 ± 0.2

CCCCCCCCCC[N+](C)(C)C.[Br-] [N,N,N-trimethyl-1-decanaminium bromide] + O
mass density [kg/m3]
Details	m1 = 0.01879	m1 = 0.02836	m1 = 0.04784	m1 = 0.05741	m1 = 0.06268	m1 = 0.0767	m1 = 0.08783	m1 = 0.09727	m1 = 0.1206	m1 = 0.1383
293.15 K	998.685 ± 0.2	998.921 ± 0.2	999.399 ± 0.2	999.635 ± 0.2	999.765 ± 0.2	1000.05 ± 0.2	1000.28 ± 0.2	1000.47 ± 0.2	1000.86 ± 0.2	1001.23 ± 0.2
298.15 K	997.496 ± 0.2	997.716 ± 0.2	998.157 ± 0.2	998.379 ± 0.2	998.511 ± 0.2	998.788 ± 0.2	998.987 ± 0.2	999.17 ± 0.2	999.597 ± 0.2	999.91 ± 0.2
303.15 K	996.082 ± 0.2	996.312 ± 0.2	996.748 ± 0.2	996.949 ± 0.2	997.055 ± 0.2	997.334 ± 0.2	997.534 ± 0.2	997.707 ± 0.2	998.105 ± 0.2	998.375 ± 0.2

CCCCCCCCCCCCCC[N+](C)(C)C.[Br-] [tetradecyltrimethylammonium bromide] + O
mass density [kg/m3]
Details	293.15 K	298.15 K	303.15 K
m1 = 0.00291	998.259 ± 0.2	997.091 ± 0.2	995.687 ± 0.2
m1 = 0.00325	998.265 ± 0.2	997.097 ± 0.2	995.692 ± 0.2
m1 = 0.00379	998.273 ± 0.2	997.103 ± 0.2	995.706 ± 0.2
m1 = 0.00393	998.275 ± 0.2	997.105 ± 0.2	995.704 ± 0.2
m1 = 0.0049	998.286 ± 0.2	997.115 ± 0.2	995.708 ± 0.2
m1 = 0.0065	998.302 ± 0.2	997.127 ± 0.2	995.727 ± 0.2
m1 = 0.00821	998.32 ± 0.2	997.144 ± 0.2	995.739 ± 0.2
m1 = 0.01087	998.344 ± 0.2	997.164 ± 0.2	995.749 ± 0.2
m1 = 0.04969	998.72 ± 0.2	997.499 ± 0.2	996.055 ± 0.2
m1 = 0.09742	999.176 ± 0.2	997.906 ± 0.2	996.41 ± 0.2
m1 = 0.1468	999.632 ± 0.2	998.322 ± 0.2	996.79 ± 0.2
m1 = 0.1955	1000.08 ± 0.2	998.719 ± 0.2	997.144 ± 0.2
m1 = 0.3023	1001 ± 0.2	999.537 ± 0.2	997.713 ± 0.2

CCCCCCCCCCCC[N+](C)(C)C.[Br-] [dodecyltrimethylammonium bromide] + O
mass density [kg/m3]
Details	293.15 K	298.15 K	303.15 K
m1 = 0.00799	998.38 ± 0.2	997.201 ± 0.2	995.799 ± 0.2
m1 = 0.00998	998.422 ± 0.2	997.244 ± 0.2	995.839 ± 0.2
m1 = 0.01168	998.455 ± 0.2	997.278 ± 0.2	995.868 ± 0.2
m1 = 0.01448	998.514 ± 0.2	997.332 ± 0.2	995.921 ± 0.2
m1 = 0.01695	998.566 ± 0.2	997.376 ± 0.2	995.96 ± 0.2
m1 = 0.01883	998.601 ± 0.2	997.406 ± 0.2	995.987 ± 0.2
m1 = 0.02825	998.739 ± 0.2	997.528 ± 0.2	996.106 ± 0.2
m1 = 0.04703	998.998 ± 0.2	997.783 ± 0.2	996.34 ± 0.2
m1 = 0.09497	999.663 ± 0.2	998.401 ± 0.2	996.928 ± 0.2
m1 = 0.1963	1001.05 ± 0.2	999.701 ± 0.2	998.119 ± 0.2
m1 = 0.301	1002.39 ± 0.21	1000.96 ± 0.21	999.316 ± 0.21

CCCCCCCC[N+](C)(C)C.[Br-] [octyl trimethyl ammonium bromide] + O
mass density [kg/m3]
Details	m1 = 0.04535	m1 = 0.09122	m1 = 0.1223	m1 = 0.1444	m1 = 0.1759	m1 = 0.1958	m1 = 0.2338	m1 = 0.2621	m1 = 0.2773	m1 = 0.3003
293.15 K	999.46 ± 0.2	1000.72 ± 0.2	1001.54 ± 0.2	1002.14 ± 0.2	1002.97 ± 0.2	1003.52 ± 0.2	1004.58 ± 0.2	1005.29 ± 0.21	1005.65 ± 0.21	1006.33 ± 0.21
298.15 K	998.261 ± 0.2	999.486 ± 0.2	1000.3 ± 0.2	1000.84 ± 0.2	1001.75 ± 0.2	1002.13 ± 0.2	1003.15 ± 0.2	1003.84 ± 0.21	1004.24 ± 0.21	1004.76 ± 0.21
303.15 K	996.848 ± 0.2	998.045 ± 0.2	998.815 ± 0.2	999.391 ± 0.2	1000.2 ± 0.2	1000.69 ± 0.2	1001.63 ± 0.2	1002.32 ± 0.2	1002.69 ± 0.21	1003.25 ± 0.21
